Results published in patent publication EP4813970A1, “L-SERINE HAVING REDUCED HEAVY METAL AMOUNT, PHARMACEUTICAL COMPOSITION THEREOF, PREPARATION METHOD THEREFOR, AND USE THEREOF” (priority 2023, dated 2025).
Where two headings read alike, the source gives them in different places.

Columns and labels:
[1] = test system: 5XFAD (Tg6799; five familial mutation); experiment: Survival on 9-month administration in an Alzheimer's disease animal model; assay type: in vivo, mice; details: 500 mg/kg orally 5 days a week for 9 months, 3 to 12 months of age
Description: In order to measure the extent to which the class 1 heavy metal content in L-serine affects neurons when taken over a long period of time, long-term administration of L-serine for 9 months from the early stage of the disease (3 months of age) to 12 months of age was conducted using 5XFAD (Tg6799; five familial mutation), which is an animal model of Alzheimer's disease, and the effect of the drug on animal viability was confirmed. Specifically, WT & 5XFAD mice (purchased from The Jackson Lab) administered with saline and WT & 5XFAD mice administered with L-serine were composed of 12 mice per group. Saline and 500 mg/kg of unpurified L-serine and secondary purified L-serine were orally administered 5 days a week for 9 months, and after administration, the survival rate (%) was measured through daily observation of mice and designated as survival rate.

[2] = test system: primary neurons; experiment: Multi-electrode array (MEA) of neuronal electrical activity under DMNQ neurotoxicity; assay type: cell-based, mouse; details: FIG. 3
Description: After adding an equal volume of culture medium, cells were separated by a mechanical method using a pipet, and single cells were separated using a 40 µm cell strainer. After centrifugation at 2,000 rpm for 5 minutes, the supernatant was removed and resuspended in culture medium. […] A 50% PEI solution, which was prepared by mixing borate buffer and PEI in a 1:1 ratio, was diluted with a 0.1% PEI solution using borate buffer and then filtered using a 0.22 µm filter. […] Laminin stock stored at -20°C was thawed at 4°C and then diluted in serum-free medium (20 ng/mL). 40 µL of 0.1% PEI was added to each well of a 24-well MEA plate, and then the 24-well MEA plate was placed in a cell incubator at 37°C and 5% CO2 for 60 minutes. After washing the 24-well MEA plate three times with sterile DW, the laminin solution was added 50 µL per well and placed overnight in a cell incubator at 37°C and 5% CO2. After removing the laminin solution from the 24-well MEA plate, the prepared primary neurons were seeded at a concentration of 1.0 × 10^5 cells/well. […] Neuronal electrical activity was measured using the Maestro Edge system every 30 minutes for 15 minutes, and the same amount of secondary purified L-serine was pretreated for 4 hours based on 0.1 mM unpurified L-serine. After drug pretreatment for 4 hours, neuronal electrical activity was measured 4 times at 30 minute intervals during 2-hour treatment with 20 µM DMNQ, and the data was analyzed using a neural metric tool and an axis metric plotting tool. […] For the MEA, neurons were cultured on electrodes for several weeks to form a network and then the electrical signals, that is action potentials, generated from the neurons were measured. […] The primary neuronal culture was cultured in 24-well MEA plates for approximately 15 days, and when electrical signals were passed through sporadic bursts and activated into synchronous network bursts, test substances were treated at concentrations not affecting cell viability, and action potentials were measured and compared.

[3] = test system: HT22 cells; experiment: Mitochondrial membrane potential by JC-1 staining after DMNQ damage; assay type: cell-based
Description: HT22 cells were cultured under 37°C and 5% CO2 conditions using DMEM medium containing 10% FBS, 100 unit/mL penicillin, and 100 µg/mL streptomycin. […] After checking the condition of the cells, 5 µM JC-1 was added to the medium and the cells were stained for 30 minutes under 37°C and 5% CO2 conditions, treated with 0.25% trypsin-EDTA and the cells were collected in an e-tube, washed twice with PBS, and analyzed with Attune NxT. The effect of L-serine, which contains class 1 heavy metals, on mitochondria, which affects both neurological diseases and metabolic diseases, was confirmed depending on the concentration of class 1 heavy metals. DMNQ causes oxidative stress and excessive production of ROS, which induces mitochondrial membrane potential depolarization, thereby resulting in mitochondrial dysfunction and apoptosis. In mitochondria, an electrochemical proton gradient is created through the mitochondrial membrane, which produces ATP, and when mitochondria are damaged and apoptosis occurs, mitochondrial permeability pores are opened and thus mitochondrial transmembrane potential decreases (membrane potential depolarization). Mitochondrial membrane potential difference, which is an indicator of apoptosis, was measured through JC-1 staining. JC-1 enters the mitochondria in normal cells due to changes in mitochondrial membrane potential and forms a multicomplex, thereby giving it a red color, whereas when apoptosis occurs due to depolarization of the mitochondrial membrane potential, JC-1 remains in the cytoplasm and gives it a green color. Four hours before DMNQ treatment, neurons were treated with unpurified L-serine, primary purified L-serine, and secondary purified L-serine, and then treating with DMNQ for 2 hours and 30 minutes, the degree of protection of neurons was measured by measuring the mitochondrial membrane potential difference through JC-1 staining.

[4] = test system: patients with hereditary sensory and autonomic neuropathy type 1 (HSAN1); details: cited from earlier work
[5] = test system: patients with amyotrophic lateral sclerosis (ALS); details: cited from earlier work
[6] = test system: fetuses with 3-PGDH deficiency; details: cited from earlier work
[7] = test system: patients with autism spectrum disorder; experiment: Phase 2 clinical trial of L-serine in children under 11 years of age; details: 400 mg/kg for 24 weeks
[8] = 4 hours pretreatment (based on 0.1 mM unpurified L-serine), then 2-hour 20 µM DMNQ
[9] = oral twice a day, maximum dose of 15 g/day for 6 months

SMILES: N[C@@H](CO)C(=O)O [secondary purified L-serine, L-serine]
- survival rate [1]: 80%
- active electrodes (spikes and network bursts) [2, 8]: active electrodes in a state without DMNQ treatment were maintained

SMILES: N[C@@H](CO)C(=O)O [L-serine]
- mitochondrial damage (green) ([3]; 0.5 mM, pre-treated 4 hours, then 20 µM DMNQ): 32.1±1.52%
- mitochondrial damage (green) ([3]; 1 mM, pre-treated 4 hours, then 20 µM DMNQ): 18.7±11.1%
- mitochondrial damage (green) ([3]; 2.5 mM, pre-treated 4 hours, then 20 µM DMNQ): 1.5±0.23%
- safety and Charcot-Marie-Tooth Neuropathy Score (CMTNS) ([4]; 400 mg/kg/day for up to 2 years): effects of improving safety and Charcot-Marie-Tooth Neuropathy Score (CMTNS) were confirmed
- 1-deoxySL (dSL) ([4]; oral, up to 400 mg/kg/day for 10 and 52 weeks): reduced
- progression of the patients' disease [5, 9]: showed the effect of delaying the progression of the patients' disease
- safety [5, 9]: safe
- safety ([5]; phase 2 clinical trials, up to 15 g twice a day for 6 months): shown to be safe
- brain growth in fetuses ([6]; maternal supply of L-serine during pregnancy): shown to improve brain growth
- neurological symptoms ([6]; postnatal children (birth to 4 years old)): shown to prevent neurological symptoms
- adverse reactions ([6]; pregnant women, fetuses, and newborns): no adverse reactions were observed
- side effects [7]: without any unusual side effects
- treatment efficiency [7]: about 40%

SMILES: N[C@@H](CO)C(=O)O [unpurified L-serine, L-serine]
- survival rate [1]: 58%
- active electrodes (spikes and network bursts) [2, 8]: the effect was not distinct

SMILES: COC1=C(OC)C(=O)c2ccccc2C1=O [DMNQ]
- mitochondrial damage (green) ([3]; 20 µM DMNQ alone): 81.4±4.2%
- active electrodes (spikes and network bursts) ([2]; 20 µM DMNQ alone, compared to the control group): significantly reduced
